# According to article PMC8149352 (Cancer Chemotherapy and Pharmacology, 2021):
# Where “and” joins values, the source holds several entries; their conditions need not be identical. Equal values may be shown once. Read-outs that look alike come from different tables or passages of the source.
# Experiments:
# [1] = Part B: effect of strong CYP3A inhibitor itraconazole on single-dose pamiparib plasma PK (phase 1 DDI study); type: in vivo, human (patients with solid tumors); conditions: for half-life / AUC(0-inf) / AUC(0-t) / Tmax / Cmax: human; for half-life / AUC(0-inf) / AUC(0-t) / Tmax: plasma, oral; for AUC(0-inf): N = 12, read-out: pamiparib AUC0-inf, GLSM (% CV); for AUC(0-t): N = 12, read-out: pamiparib AUC0-tlast, GLSM (% CV); for Tmax: N = 12, read-out: pamiparib tmax, median (range); for Cmax: N = 12, plasma, read-out: pamiparib Cmax, GLSM (% CV)
# Method: Part B of the core phase assessed the effect of the strong CYP3A inhibitor itraconazole on the PK of pamiparib in patients with solid tumors. All patients received a single dose of oral pamiparib 20 mg on days 1 and 7, and oral itraconazole 200 mg QD on days 3–8. The 20-mg pamiparib dose, the lowest dose strength available and one-sixth of the highest phase 1 dose (120 mg), was deemed sufficient to cover the plasma exposure increase due to complete blockade of CYP3A by itraconazole. Part B patients fasted for at least 8 h before and at least 4 h after pamiparib administration, except for day 7 upon which itraconazole administration occurred ~ 30 min after completing a meal and pamiparib administration followed within 5 min of itraconazole administration. Blood samples for PK analysis were obtained on days 1 and 7 at the same time points listed above for Part A. After completing the core phase in Part A and Part B, patients were offered participation in the extension phase, in which they were to receive pamiparib PO BID in 28-day cycles until disease progression, unacceptable toxicity, withdrawal of consent, or any other reason for discontinuation. […]
# (§1) The safety population included all patients who received at least one dose of pamiparib. […] Plasma PK parameters were calculated from pamiparib concentration–time profiles using standard noncompartmental methods. PK parameters were calculated using Phoenix WinNonlin v6.4 or higher (Certara, Princeton, NJ, USA). […] Data for each treatment part were analyzed separately. Log-transformed AUC and Cmax values were analyzed using a linear mixed-effect model analysis assuming a fixed effect for treatment and a random effect for patients. The study design called for ~ 24 patients (12 in each part) to be enrolled to ensure at least 20 (10 in each part) completed the study. This sample size was based on the precedent set by other PK studies of a similar nature and was not based on power calculations.
# [2] = test system: cytochromes P450 3A (CYP3A) and P450 2C8; set-up: method as in unpublished data; conditions: in vitro phenotyping study; ref unpublished data; cited from earlier work
# [3] = Part A safety: adverse events (NCI CTCAE v5.0), safety population; type: in vivo, human (patients with advanced solid tumors)
# Method: This was an open-label, parallel-group, phase 1 study consisting of a 2-part core phase and an extension phase. Only results for the core phases are reported herein (Supplementary Fig. 1). […] Blood samples for PK analysis were obtained on days 1 and 10 at predose, and at 0.5, 1, 2, 4, 6, 9, 12, 24, and 48 h postdose. Pamiparib plasma concentrations were determined using a validated liquid chromatography–mass spectrometry/mass spectrometry method (lower limit of quantification 1.0 ng/mL) at Covance Laboratory Services (Salt Lake City, Utah).
# (§2) Adverse events (AEs) were monitored throughout the study and were graded according to the National Cancer Institute Common Terminology Criteria v5.0.
# as §1
# [4] = test system: poly(ADP-ribose) synthesis in peripheral blood mononuclear cells; set-up: method as in earlier work; conditions: pamiparib doses of 10 mg or higher; cited from earlier work
# [5] = set-up: method as in earlier work; conditions: cited from earlier work
# [6] = set-up: method as in not given; conditions: in vitro and animal studies; ref not given; cited from earlier work
# [7] = Part A: effect of strong CYP3A inducer rifampin on single-dose pamiparib plasma PK (phase 1 DDI study); type: in vivo, human (patients with advanced solid tumors); conditions: for Tmax: read-out: pamiparib tmax, median (range)
# Method: This was an open-label, parallel-group, phase 1 study consisting of a 2-part core phase and an extension phase. Only results for the core phases are reported herein (Supplementary Fig. 1). […] Blood samples for PK analysis were obtained on days 1 and 10 at predose, and at 0.5, 1, 2, 4, 6, 9, 12, 24, and 48 h postdose. Pamiparib plasma concentrations were determined using a validated liquid chromatography–mass spectrometry/mass spectrometry method (lower limit of quantification 1.0 ng/mL) at Covance Laboratory Services (Salt Lake City, Utah). […]
# as §1
# [8] = Part B safety: adverse events (NCI CTCAE v5.0), safety population; type: in vivo, human (patients with solid tumors)
# Method: Part B of the core phase assessed the effect of the strong CYP3A inhibitor itraconazole on the PK of pamiparib in patients with solid tumors. All patients received a single dose of oral pamiparib 20 mg on days 1 and 7, and oral itraconazole 200 mg QD on days 3–8. The 20-mg pamiparib dose, the lowest dose strength available and one-sixth of the highest phase 1 dose (120 mg), was deemed sufficient to cover the plasma exposure increase due to complete blockade of CYP3A by itraconazole. Part B patients fasted for at least 8 h before and at least 4 h after pamiparib administration, except for day 7 upon which itraconazole administration occurred ~ 30 min after completing a meal and pamiparib administration followed within 5 min of itraconazole administration. Blood samples for PK analysis were obtained on days 1 and 7 at the same time points listed above for Part A. After completing the core phase in Part A and Part B, patients were offered participation in the extension phase, in which they were to receive pamiparib PO BID in 28-day cycles until disease progression, unacceptable toxicity, withdrawal of consent, or any other reason for discontinuation.
# as §2, §1
# P-glycoprotein = test system: P-glycoprotein; set-up: method as in PMID 32652442; conditions: cited from earlier work
# [9] = pamiparib 20 mg alone, day 1, reference
# [10] = pamiparib 20 mg day 7 with itraconazole 200 mg QD, test
# [11] = Part A (N = 12), by treatment period
# [12] = Part A, rifampin 600 mg QD coadministration
# [13] = Part B (N = 13; N = 12 for pamiparib with itraconazole), by treatment period
compound,measurement,setting,value
C[C@]12CCCN1CC1=NNC(=O)c3cc(F)cc4[nH]c2c1c34 [Pamiparib],half-life,"[1]; 20 mg, pamiparib 20 mg alone, day 1, reference, N = 12, read-out: pamiparib t1/2, median (range) (converted)",9.3 h
same,AUC(0-inf),[1]; [9],8440 ng·h/mL
same,AUC(0-t),[1]; [9],7840 ng·h/mL
same,Tmax,[1]; [9],2 h
same,AUC(0-inf),[1]; [10],8380 ng·h/mL
same,AUC(0-t),[1]; [10],7790 ng·h/mL
same,half-life,"[1]; pamiparib 20 mg day 7 with itraconazole 200 mg QD, test, N = 12, read-out: pamiparib t1/2, median (range) (converted)",11.2 h
same,Tmax,[1]; [10],1 h
same,half-life,"[1]; pamiparib 20 mg in combination with itraconazole, read-out: pamiparib mean t1/2 (converted)",12 h
same,Cmax,"[1]; single oral pamiparib 20 mg alone, day 1, reference",665 ng/mL
same,Cmax,"[1]; single oral pamiparib 20 mg on day 7 with itraconazole 200 mg QD (days 3-8), test",699 ng/mL
same,pamiparib mean t1/2,[1]; pamiparib 20 mg alone,11.9 h
same,enzymes mediating metabolism,[2],primarily mediated by cytochromes P450 3A (CYP3A) and P450 2C8
same,"All TEAEs (any grade), patients",[3]; [11],1 (8.3) n (%)
same,"Any treatment-related TEAE, patients",[3]; [11],0 n (%)
same,"Grade >= 3 TEAE, patients",[3]; [11],0 n (%)
same,"Serious AE, patients",[3]; [11],0 n (%)
same,"Treatment-related TEAE related to both, patients",[3]; [11],0 n (%)
same,"Treatment-related TEAE related to pamiparib only, patients",[3]; [11],0 n (%)
same,"Treatment-related TEAE related to rifampin only, patients",[3]; [11],0 n (%)
same,tolerability,[3]; single dose 60 mg pamiparib alone or coadministered with 600 mg rifampin,well tolerated
same,sustained inhibition of poly(ADP-ribose) synthesis in peripheral blood mononuclear cells,[4],~ 80%
same,accumulation ratio for AUC (95% CI),[5]; 60 mg BID,"2.37 (95% CI, 1.61–3.50)"
same,accumulation ratio for Cmax (95% CI),[5]; 60 mg BID,"1.99 (95% CI, 1.47–2.69)"
same,geometric mean half-life,[5]; 60 mg BID,13.5 h
same,tolerability,[5]; first-in-human study,well tolerated
same,median time to maximum concentration (tmax),"[5]; first-in-human study, oral",1 to 2 h
same,anti-tumor activity,[5]; patients with high-grade epithelial non-mucinous ovarian cancer,preliminary anti-tumor activity
same,clastogenicity,[6],clastogenic activity
same,reduction of pamiparib plasma exposure (AUC) with rifampin coadministration,"[7]; Part A, AUC0-tlast to AUC0-inf",38–43%
same,reduction of pamiparib AUC0-inf (geometric mean) with rifampin versus day 1,[7]; [12],~43%
same,reduction of pamiparib AUC0-tlast (geometric mean) with rifampin versus day 1,[7]; [12],~ 38% and 38%
same,half-life,"[7]; human, plasma, oral, 60 mg, Part A, pamiparib 60 mg alone, day 1, reference, N = 9, read-out: pamiparib t1/2, median (range) (converted)",13.4 h
same,half-life,"[7]; human, plasma, oral, 60 mg, Part A, pamiparib 60 mg alone, read-out: pamiparib mean t1/2 (converted)",12.5 h
same,half-life,"[7]; human, plasma, oral, Part A, pamiparib 60 mg day 10 with rifampin 600 mg QD, test, N = 11, read-out: pamiparib t1/2, median (range) (converted)",7.7 h
same,half-life,"[7]; human, plasma, oral, Part A, pamiparib 60 mg in combination with rifampin, read-out: pamiparib mean t1/2 (converted)",7.94 h
same,AUC(0-inf),"[7]; human, plasma, oral, Part A, pamiparib 60 mg alone, day 1, reference, N = 9, read-out: pamiparib AUC0-inf, GLSM (% CV)",29500 ng·h/mL
same,AUC(0-t),"[7]; human, plasma, oral, Part A, pamiparib 60 mg alone, day 1, reference, N = 11, read-out: pamiparib AUC0-tlast, GLSM (% CV)",28800 ng·h/mL
same,Tmax,"[7]; human, plasma, oral, Part A, pamiparib 60 mg alone, day 1, reference, N = 11",2 h
same,Tmax,"[7]; human, plasma, oral",2 h
same,Cmax,"[7]; human, Part A, single oral pamiparib 60 mg alone, day 1, reference, N = 11, plasma, read-out: pamiparib Cmax, GLSM (% CV)",1990 ng/mL
same,"All TEAEs (any grade), patients",[8]; [13],2 (15.4) n (%)
same,"Any treatment-related TEAE, patients",[8]; [13],1 (7.7) n (%)
same,"Grade >= 3 TEAE, patients",[8]; [13],0 n (%)
same,"Serious AE, patients",[8]; [13],0 n (%)
same,"Treatment-related TEAE related to both, patients",[8]; [13],0 n (%)
same,"Treatment-related TEAE related to itraconazole only, patients",[8]; [13],0 n (%)
same,"Treatment-related TEAE related to pamiparib only, patients",[8]; [13],1 (7.7) n (%)
same,"Serious AE related to both, patients","[8]; Part B, by treatment period",0 n (%)
same,"Serious AE related to itraconazole only, patients","[8]; Part B, by treatment period",0 n (%)
same,"Serious AE related to pamiparib only, patients","[8]; Part B, by treatment period",0 n (%)
same,tolerability,[8]; single dose 20 mg pamiparib alone or coadministered with 200 mg itraconazole,well tolerated
same,P-glycoprotein substrate status,P-glycoprotein,not a substrate of P-glycoprotein
